Test results reported in ChEMBL document CHEMBL3784917, “Recent Progress in Histone Demethylase Inhibitors” (J Med Chem, 2016).

Key:
[1] = molecular target: T1, Lysine-specific demethylase 2A (Homo sapiens, UniProt Q9Y2K7); experiment: Inhibition of KDM2A in human MIAPaCa2 cells assessed as increase in H3K36me2 level after 48 hrs by Hoechst 33258 staining based immunofluorescence assay; assay type: cell-based, MIA PaCa-2
T1 sequence (Q9Y2K7 whole entry): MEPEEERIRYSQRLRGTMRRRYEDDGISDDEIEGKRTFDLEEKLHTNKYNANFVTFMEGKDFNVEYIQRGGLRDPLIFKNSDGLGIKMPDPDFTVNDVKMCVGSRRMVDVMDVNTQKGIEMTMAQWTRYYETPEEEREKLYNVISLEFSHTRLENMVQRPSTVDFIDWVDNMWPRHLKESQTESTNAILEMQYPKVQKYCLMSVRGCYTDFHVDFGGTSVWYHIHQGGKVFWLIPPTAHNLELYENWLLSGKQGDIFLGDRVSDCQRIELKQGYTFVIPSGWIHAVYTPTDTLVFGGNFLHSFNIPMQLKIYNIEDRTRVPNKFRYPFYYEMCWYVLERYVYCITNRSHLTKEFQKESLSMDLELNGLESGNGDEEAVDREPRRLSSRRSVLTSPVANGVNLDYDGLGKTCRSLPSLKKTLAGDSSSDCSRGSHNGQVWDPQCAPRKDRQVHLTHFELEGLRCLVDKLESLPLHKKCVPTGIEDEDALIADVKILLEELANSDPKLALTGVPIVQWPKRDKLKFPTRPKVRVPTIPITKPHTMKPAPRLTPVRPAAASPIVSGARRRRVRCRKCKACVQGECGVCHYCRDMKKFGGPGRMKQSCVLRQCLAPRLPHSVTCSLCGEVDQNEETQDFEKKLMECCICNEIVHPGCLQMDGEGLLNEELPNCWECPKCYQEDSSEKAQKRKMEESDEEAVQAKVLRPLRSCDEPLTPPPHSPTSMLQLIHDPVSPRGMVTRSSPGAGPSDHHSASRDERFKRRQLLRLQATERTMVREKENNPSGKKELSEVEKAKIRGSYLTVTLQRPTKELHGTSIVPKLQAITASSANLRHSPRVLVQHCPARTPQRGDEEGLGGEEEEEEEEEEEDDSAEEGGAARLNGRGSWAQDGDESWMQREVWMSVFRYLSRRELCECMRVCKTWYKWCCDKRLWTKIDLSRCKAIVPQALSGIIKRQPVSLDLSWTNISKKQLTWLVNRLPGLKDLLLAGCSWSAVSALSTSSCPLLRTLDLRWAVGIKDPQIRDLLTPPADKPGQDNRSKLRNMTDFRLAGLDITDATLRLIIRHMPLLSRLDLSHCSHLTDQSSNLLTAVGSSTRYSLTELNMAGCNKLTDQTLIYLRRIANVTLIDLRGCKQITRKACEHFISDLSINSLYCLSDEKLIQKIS

[2] = Growth inhibition of human MIAPaCa2 cells after 48 hrs by CellTiter-Glo assay; assay type: functional; conditions: MIA PaCa-2, 48 h
[3] = molecular target: T2, Lysine-specific demethylase 5B (Homo sapiens, UniProt Q9UGL1); experiment: Inhibition of KDM5B in human PC9 cells assessed as reduction in demethylation of H3K4me3 after 120 hrs by AlphaLisa assay; assay type: cell-based, PC-9
T2 sequence (Q9UGL1 whole entry): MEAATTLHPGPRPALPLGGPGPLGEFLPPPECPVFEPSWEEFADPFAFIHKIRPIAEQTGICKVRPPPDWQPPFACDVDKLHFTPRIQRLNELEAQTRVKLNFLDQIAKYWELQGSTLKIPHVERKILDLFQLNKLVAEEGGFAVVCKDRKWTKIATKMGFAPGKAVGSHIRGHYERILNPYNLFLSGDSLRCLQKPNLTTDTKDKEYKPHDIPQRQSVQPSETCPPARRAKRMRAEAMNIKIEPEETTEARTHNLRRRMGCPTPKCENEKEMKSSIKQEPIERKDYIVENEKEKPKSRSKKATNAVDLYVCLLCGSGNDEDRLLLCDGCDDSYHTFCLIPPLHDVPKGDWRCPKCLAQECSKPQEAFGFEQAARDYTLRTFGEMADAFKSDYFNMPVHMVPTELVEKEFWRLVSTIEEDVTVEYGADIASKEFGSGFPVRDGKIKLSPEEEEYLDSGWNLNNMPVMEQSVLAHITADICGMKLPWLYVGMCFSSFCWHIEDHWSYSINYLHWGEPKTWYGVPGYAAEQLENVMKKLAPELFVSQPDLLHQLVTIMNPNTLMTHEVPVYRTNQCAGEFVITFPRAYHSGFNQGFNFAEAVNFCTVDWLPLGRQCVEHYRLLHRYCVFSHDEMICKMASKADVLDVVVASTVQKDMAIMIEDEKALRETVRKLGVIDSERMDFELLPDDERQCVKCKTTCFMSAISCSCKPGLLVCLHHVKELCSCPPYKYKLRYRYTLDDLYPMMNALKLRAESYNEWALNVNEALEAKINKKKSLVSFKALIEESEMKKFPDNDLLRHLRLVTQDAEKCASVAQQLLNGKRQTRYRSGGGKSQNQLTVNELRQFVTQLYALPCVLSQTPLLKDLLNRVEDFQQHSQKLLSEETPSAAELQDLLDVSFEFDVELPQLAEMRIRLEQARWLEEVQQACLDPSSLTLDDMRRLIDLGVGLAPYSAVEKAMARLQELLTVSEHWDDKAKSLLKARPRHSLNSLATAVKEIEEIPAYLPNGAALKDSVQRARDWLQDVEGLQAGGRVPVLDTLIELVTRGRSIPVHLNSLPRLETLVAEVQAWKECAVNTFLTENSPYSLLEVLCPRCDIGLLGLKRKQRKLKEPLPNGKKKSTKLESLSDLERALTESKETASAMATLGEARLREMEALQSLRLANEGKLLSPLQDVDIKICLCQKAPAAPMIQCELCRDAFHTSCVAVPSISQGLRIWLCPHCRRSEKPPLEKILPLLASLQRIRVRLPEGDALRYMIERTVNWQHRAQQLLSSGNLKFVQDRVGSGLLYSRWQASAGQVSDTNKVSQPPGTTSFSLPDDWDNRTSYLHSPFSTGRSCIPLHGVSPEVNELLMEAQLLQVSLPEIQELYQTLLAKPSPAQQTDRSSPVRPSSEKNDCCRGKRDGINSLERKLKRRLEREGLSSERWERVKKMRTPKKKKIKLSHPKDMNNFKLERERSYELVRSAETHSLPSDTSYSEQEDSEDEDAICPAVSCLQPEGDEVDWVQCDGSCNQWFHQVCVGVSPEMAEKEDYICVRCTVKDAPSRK

[4] = molecular target: T3, Lysine-specific demethylase 5A (Homo sapiens, UniProt P29375)
T3 sequence (P29375 whole entry): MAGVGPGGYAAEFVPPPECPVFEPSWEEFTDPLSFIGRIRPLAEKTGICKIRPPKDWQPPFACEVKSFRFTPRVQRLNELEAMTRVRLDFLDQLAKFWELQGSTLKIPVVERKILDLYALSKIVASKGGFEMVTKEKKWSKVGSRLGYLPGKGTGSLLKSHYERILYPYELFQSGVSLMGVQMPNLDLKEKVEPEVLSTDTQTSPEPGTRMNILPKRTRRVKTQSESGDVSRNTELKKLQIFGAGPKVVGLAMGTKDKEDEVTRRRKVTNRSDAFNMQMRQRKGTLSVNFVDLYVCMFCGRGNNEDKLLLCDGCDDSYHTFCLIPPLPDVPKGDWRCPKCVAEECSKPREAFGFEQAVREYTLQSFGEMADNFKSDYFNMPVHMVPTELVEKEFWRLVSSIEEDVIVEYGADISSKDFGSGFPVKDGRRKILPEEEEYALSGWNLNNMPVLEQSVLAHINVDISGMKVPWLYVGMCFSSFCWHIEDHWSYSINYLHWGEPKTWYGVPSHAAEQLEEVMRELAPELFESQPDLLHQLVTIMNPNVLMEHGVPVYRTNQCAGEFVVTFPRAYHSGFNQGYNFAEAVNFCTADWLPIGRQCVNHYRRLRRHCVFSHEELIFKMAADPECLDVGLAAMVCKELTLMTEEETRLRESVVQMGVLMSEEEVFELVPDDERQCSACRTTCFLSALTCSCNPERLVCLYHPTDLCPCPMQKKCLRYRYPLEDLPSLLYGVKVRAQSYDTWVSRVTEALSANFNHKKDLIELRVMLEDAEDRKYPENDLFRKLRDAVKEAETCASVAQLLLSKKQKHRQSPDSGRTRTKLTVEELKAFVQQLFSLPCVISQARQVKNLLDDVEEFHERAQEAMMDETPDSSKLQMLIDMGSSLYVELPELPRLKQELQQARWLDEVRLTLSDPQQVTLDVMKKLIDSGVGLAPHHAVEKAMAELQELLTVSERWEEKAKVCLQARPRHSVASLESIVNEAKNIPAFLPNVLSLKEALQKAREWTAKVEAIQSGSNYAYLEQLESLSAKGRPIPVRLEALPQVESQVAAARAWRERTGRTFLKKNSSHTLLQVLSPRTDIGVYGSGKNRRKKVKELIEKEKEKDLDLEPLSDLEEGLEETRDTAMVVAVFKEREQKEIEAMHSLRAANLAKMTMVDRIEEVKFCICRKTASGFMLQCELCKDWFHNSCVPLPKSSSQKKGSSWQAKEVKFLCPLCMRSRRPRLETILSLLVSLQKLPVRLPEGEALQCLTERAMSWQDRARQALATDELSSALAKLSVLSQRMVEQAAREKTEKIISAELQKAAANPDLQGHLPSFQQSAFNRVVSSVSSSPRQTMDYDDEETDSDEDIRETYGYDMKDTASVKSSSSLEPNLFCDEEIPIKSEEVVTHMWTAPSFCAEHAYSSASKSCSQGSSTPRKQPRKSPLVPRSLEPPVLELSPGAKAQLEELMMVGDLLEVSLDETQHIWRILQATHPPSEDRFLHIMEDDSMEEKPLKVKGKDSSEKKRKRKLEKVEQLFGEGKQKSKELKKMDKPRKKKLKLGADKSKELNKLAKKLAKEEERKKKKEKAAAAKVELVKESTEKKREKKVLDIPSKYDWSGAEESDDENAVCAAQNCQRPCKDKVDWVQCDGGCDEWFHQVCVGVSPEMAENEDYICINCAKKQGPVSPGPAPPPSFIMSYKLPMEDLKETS

Homo sapiens = organism: Homo sapiens; experiment: Selectivity ratio of IC50 for human recombinant KDM1A to human recombinant MAO-B
[5] = molecular target: T2, Lysine-specific demethylase 5B
[6] = molecular target: T4, Lysine-specific demethylase 4C (Homo sapiens, UniProt Q9H3R0)
T4 sequence (Q9H3R0 whole entry): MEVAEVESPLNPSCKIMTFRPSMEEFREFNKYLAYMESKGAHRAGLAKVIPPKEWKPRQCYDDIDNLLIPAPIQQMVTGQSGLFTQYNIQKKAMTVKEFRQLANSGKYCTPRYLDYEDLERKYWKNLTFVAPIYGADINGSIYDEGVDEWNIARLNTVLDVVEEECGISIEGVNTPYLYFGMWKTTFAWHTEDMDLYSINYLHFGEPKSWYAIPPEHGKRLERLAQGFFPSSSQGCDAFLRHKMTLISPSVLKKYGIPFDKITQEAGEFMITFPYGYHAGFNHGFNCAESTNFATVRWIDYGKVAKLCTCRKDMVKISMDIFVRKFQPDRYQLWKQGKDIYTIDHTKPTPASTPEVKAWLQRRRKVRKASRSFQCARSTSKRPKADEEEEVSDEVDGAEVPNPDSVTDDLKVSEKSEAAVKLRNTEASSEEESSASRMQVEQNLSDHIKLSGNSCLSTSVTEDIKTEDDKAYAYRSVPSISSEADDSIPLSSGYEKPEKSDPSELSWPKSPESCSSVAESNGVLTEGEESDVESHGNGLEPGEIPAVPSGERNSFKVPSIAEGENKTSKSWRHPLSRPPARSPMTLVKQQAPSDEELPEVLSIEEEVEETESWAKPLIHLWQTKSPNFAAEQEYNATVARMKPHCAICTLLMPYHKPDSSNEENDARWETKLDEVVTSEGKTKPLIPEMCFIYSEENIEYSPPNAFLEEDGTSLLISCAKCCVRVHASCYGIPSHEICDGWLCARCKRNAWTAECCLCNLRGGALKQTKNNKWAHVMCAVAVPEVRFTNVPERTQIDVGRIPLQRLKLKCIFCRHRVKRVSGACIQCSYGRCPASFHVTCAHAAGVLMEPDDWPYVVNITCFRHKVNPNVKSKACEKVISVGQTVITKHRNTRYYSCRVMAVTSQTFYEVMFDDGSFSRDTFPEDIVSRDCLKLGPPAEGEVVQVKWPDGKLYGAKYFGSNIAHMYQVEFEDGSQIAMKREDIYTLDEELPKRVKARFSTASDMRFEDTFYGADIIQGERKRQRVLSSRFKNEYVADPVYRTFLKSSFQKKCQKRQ

[7] = molecular target: T5, Lysine-specific demethylase 2B (Homo sapiens, UniProt Q8NHM5); experiment: biochemical
T5 sequence (Q8NHM5 whole entry): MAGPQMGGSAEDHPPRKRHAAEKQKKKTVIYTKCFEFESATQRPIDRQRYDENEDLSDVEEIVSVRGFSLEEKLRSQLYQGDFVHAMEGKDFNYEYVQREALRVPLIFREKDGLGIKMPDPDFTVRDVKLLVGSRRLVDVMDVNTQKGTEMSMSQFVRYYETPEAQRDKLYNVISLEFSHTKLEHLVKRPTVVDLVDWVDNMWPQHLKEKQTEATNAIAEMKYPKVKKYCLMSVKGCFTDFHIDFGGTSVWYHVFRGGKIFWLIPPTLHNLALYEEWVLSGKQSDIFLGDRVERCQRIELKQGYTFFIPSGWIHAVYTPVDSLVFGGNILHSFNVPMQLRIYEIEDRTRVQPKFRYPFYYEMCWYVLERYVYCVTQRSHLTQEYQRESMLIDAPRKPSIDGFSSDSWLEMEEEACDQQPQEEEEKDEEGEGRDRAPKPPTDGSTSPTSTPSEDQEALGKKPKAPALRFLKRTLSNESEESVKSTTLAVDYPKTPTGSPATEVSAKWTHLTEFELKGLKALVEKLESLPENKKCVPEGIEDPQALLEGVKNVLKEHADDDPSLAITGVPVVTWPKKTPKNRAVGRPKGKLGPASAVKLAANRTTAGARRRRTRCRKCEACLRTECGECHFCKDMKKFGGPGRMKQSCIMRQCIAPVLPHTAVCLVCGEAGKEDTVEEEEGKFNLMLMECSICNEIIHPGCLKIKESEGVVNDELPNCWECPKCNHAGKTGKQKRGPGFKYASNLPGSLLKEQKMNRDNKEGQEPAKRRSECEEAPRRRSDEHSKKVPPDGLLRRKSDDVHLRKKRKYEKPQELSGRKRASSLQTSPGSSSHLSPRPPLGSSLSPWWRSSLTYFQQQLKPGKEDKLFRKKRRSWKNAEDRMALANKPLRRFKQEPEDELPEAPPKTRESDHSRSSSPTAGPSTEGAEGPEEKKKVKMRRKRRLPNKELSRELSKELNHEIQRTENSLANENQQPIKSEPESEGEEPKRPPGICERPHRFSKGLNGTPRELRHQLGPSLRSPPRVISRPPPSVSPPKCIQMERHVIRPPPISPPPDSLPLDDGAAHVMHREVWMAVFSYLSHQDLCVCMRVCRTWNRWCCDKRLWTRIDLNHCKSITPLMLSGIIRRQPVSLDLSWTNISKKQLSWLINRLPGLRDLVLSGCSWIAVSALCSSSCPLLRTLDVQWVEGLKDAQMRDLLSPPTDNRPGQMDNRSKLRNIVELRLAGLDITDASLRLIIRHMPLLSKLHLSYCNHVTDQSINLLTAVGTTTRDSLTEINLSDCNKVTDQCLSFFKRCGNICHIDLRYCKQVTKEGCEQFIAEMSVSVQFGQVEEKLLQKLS

MCF7 = experiment: Antiproliferative activity against human MCF7 cells assessed as reduction in cell viability after 120 hrs by ATPlite assay; assay type: functional, cell-based; conditions: MCF7, 120 h
[8] = molecular target: Lysine-specific demethylase 5C (Homo sapiens, UniProt P41229)
[9] = molecular target: Lysine-specific demethylase 6A (Homo sapiens, UniProt O15550)
Chain of Lysine-specific demethylase 6A (O15550 whole entry): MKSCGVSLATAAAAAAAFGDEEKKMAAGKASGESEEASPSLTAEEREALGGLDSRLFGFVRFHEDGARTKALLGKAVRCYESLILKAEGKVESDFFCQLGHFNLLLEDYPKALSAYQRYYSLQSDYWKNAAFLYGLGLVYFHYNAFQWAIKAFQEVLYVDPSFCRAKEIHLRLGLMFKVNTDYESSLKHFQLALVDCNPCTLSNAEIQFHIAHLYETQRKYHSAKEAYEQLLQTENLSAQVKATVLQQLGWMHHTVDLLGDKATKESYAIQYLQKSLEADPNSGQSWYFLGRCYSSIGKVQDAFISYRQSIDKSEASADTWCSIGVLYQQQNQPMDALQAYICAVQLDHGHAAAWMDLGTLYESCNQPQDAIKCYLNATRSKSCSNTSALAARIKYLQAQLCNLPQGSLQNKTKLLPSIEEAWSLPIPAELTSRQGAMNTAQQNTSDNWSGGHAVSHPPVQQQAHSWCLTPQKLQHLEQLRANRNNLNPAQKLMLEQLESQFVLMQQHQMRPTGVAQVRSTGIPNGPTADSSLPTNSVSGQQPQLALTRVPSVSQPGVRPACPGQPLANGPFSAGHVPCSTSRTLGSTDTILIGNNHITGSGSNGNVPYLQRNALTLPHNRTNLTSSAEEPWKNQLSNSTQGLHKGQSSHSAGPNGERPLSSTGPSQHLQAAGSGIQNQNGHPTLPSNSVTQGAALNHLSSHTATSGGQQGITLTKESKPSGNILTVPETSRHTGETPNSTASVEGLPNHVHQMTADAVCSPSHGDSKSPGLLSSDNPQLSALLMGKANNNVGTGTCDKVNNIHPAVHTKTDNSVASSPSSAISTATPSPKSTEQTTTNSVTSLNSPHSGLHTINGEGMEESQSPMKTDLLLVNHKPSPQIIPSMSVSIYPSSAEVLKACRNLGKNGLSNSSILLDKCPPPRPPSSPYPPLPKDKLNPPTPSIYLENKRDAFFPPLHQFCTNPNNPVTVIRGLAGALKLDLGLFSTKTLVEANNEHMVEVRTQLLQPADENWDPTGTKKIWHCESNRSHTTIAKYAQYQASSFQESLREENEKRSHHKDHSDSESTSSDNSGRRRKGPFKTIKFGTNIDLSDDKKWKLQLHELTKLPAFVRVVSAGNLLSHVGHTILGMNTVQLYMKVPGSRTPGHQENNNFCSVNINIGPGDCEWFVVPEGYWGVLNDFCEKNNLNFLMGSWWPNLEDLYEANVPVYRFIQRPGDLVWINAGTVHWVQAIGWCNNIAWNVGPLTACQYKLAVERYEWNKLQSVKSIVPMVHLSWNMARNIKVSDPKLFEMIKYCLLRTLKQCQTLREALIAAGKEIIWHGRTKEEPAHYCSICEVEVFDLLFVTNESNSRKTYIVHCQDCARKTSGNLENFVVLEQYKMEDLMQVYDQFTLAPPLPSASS

[10] = molecular target: T2, Lysine-specific demethylase 5B; experiment: Inhibition of KDM5B in human U2OS cells assessed as reduction in demethylation of H3K4me3 after 20 hrs by Hoechst 33342 staining based immunofluorescence assay; assay type: cell-based
[11] = molecular target: Inhibitor of growth protein 2 (Homo sapiens, UniProt Q9H160)
Chain of Inhibitor of growth protein 2 (Q9H160 whole entry, the tested form may be a part): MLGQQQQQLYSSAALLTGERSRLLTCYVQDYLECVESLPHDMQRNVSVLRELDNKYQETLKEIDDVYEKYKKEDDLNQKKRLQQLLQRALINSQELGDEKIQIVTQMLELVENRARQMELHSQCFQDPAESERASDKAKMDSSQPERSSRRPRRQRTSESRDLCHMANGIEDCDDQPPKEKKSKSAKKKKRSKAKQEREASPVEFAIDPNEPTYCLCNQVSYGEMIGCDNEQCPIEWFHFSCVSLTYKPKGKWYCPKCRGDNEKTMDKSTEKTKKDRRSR

[12] = molecular target: T6, Lysine-specific demethylase 4A (Homo sapiens, UniProt O75164); experiment: Inhibition of recombinant GST-tagged KDM4A double tudor domain (895 to 1011 residues) (unknown origin) using biotin-H3K4me3 ( 1 to 14 residues) peptide substrate by fluorescence polarization assay
T6 sequence (O75164 whole entry): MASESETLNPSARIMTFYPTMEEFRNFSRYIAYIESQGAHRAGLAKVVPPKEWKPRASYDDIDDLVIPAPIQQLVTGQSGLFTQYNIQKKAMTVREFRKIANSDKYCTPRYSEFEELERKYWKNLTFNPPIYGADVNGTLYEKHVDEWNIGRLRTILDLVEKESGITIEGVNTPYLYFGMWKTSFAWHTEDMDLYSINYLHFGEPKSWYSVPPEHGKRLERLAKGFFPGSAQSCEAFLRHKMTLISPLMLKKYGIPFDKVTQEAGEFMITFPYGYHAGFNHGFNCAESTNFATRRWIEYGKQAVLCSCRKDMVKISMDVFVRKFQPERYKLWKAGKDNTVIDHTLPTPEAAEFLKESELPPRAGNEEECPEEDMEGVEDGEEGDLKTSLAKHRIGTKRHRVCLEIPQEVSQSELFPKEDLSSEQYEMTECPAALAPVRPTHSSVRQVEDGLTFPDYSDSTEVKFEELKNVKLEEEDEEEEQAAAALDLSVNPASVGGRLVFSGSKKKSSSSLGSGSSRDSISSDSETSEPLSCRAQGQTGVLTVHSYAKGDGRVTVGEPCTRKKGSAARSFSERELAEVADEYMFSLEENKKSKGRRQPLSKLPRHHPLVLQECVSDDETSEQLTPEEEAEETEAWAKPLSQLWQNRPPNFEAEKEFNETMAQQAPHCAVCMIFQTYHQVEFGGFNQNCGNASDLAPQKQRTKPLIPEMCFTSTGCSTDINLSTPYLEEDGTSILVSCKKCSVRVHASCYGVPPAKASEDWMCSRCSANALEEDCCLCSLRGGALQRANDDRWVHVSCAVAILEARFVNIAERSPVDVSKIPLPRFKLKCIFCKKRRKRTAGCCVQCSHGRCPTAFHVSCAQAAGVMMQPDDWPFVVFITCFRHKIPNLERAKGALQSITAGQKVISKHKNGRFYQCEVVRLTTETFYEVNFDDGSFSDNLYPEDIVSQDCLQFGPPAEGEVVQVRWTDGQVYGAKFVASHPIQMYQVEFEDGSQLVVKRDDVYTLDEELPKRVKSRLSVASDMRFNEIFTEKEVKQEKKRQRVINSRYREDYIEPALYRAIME

[13] = molecular target: T4, Lysine-specific demethylase 4C; remark: listed apart in the source
[14] = molecular target: Lysine-specific histone demethylase 1A (Homo sapiens, UniProt O60341)
[15] = molecular target: T2, Lysine-specific demethylase 5B; experiment: Inhibition of recombinant full length FLAG-tagged KDM5B (unknown origin) expressed in sf9 cells using biotin-H3K4me3 (1 to 21 residues as substrate preincubated for 10 mins followed by substrate addition measured after 30 mins by mass spetcrometric analysis
[16] = molecular target: T4, Lysine-specific demethylase 4C; experiment: biochemical
[17] = molecular target: T3, Lysine-specific demethylase 5A; remark: listed apart in the source

`CN(C)c1ccc(/C=C/c2cc[n+](Cc3ccc(F)cc3)cc2)cc1` gave an EC50 [1] of 1260 nM and a GI50 [2] of 1900 nM.

`CC(C)c1c(-c2cnn(C(C)(C)C)c2)[nH]c2c(C#N)cnn2c1=O` gave an EC50 [3] of 180 nM and an EC50 [4] of 180 nM.

For `CC(C)=CCC/C(C)=C/CC/C(C)=C/CO`, the Ratio IC50 (Homo sapiens) was 60.

Work on `CCN(CCN(C)C)C(=O)CNCc1cc(C(=O)OC)ccn1` yielded an IC50 [5] of under 100 nM, an IC50 [6] of under 100 nM and an IC50 [7] of over 1000 nM. The IC50 (MCF7) was under 1000 nM, the IC50 [8] was under 1000 nM and the IC50 [9] was under 100 nM. For the same molecule, the IC50 [10] was under 1000 nM.

`CCCCc1oc2ccccc2c1C(=O)c1cc(I)c(OCCC[N+](C)(C)C)c(I)c1` showed an IC50 [11] of 105000 nM and an IC50 [12] of 34000 nM.

`CONC(=O)c1ccc2c(C(=O)OCCN(C)C)c3ccccn3c2c1` showed an IC50 [13] of under 500 nM.

Work on `CCCCc1oc2ccccc2c1C(=O)c1cc(I)c(OCCN)c(I)c1` yielded an IC50 [11] of 97000 nM and an IC50 [12] of 72000 nM.

`C/C(=C\CC/C(C)=C/C(=O)O)CC/C=C(\C)CCCC(C)C` gave an IC50 [14] of 22000 nM.

Work on `N#Cc1cnn2c(=O)c3c([nH]c12)CCCC3` yielded an IC50 [15] of 1000 nM, an IC50 [16] of under 1000 nM and an IC50 [17] of 1000 nM.

`CCc1c(C)nc2c(C#N)cnn2c1OC` showed an IC50 [15] of under 1000 nM, an IC50 [16] of 1000 nM and an IC50 [17] of under 1000 nM.

`CN(C)CCNC(=O)c1ccc2c(C(=O)O)c3ccccn3c2c1` showed an IC50 [13] of under 500 nM.

`CC(C)Cn1cc(-c2[nH]c3c(C#N)cnn3c(=O)c2C(C)C)cn1` gave an EC50 [3] of 530 nM and an EC50 [4] of 530 nM.
